Assay results as given in patent US8389680B2, “Treatment of Aspergillus infections with alpha thymosin peptides” (SciClone Pharmaceuticals, Inc., priority 2003, dated 2013).
“Also recorded” adds a separate entry of the source.

Assays:
[1] = molecular target: T1, human TLR9 (Homo sapiens, UniProt Q9NR96); assay: IL-8 production by TLR9-transfected HEK293 cells; assay type: cell-based
T1 construct: expressed in transfected cells; host or cells: HEK293
T1 sequence (Q9NR96 26-1032): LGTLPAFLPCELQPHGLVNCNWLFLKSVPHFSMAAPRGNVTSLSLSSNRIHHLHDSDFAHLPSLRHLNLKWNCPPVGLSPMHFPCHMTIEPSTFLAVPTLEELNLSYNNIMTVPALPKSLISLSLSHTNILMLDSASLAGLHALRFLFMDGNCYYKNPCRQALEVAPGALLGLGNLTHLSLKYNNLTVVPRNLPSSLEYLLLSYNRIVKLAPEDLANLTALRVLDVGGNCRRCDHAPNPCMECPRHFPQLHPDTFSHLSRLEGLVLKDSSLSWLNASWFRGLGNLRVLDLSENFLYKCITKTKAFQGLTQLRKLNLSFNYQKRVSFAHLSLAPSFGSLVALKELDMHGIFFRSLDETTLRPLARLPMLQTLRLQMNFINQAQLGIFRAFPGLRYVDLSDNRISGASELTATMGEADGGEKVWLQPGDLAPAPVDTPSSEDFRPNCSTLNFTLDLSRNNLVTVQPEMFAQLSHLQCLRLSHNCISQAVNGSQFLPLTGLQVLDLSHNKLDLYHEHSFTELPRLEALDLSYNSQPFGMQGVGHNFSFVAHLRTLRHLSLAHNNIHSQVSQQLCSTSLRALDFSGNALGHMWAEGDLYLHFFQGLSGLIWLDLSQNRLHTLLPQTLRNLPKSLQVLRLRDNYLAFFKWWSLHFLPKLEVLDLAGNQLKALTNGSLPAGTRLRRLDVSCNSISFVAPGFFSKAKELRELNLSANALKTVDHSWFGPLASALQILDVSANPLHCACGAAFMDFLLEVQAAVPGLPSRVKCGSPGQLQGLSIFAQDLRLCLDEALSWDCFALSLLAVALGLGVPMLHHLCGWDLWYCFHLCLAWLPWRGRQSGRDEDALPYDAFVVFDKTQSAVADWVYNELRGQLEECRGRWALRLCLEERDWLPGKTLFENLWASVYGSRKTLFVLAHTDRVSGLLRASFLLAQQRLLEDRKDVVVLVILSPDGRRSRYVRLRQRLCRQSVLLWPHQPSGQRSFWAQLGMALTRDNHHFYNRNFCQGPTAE
Protocol: (§1) The human embryonic kidney cell line HEK293, wild type or stably transfected with human TLR2, TLR9 and TLR4/CD1427 were cultured in low glucose Dulbecco's modified Eagle's medium supplemented with 10% FCS, HEPES ([…]), L-glutamine ([…]), and gentamycin (50 microgram/ml). Transfectants were additionally supplemented with puromycin (100 microgram/ml). For stimulation experiments, cells were cultured at a density of 3 to 5×10^5 cells/wells in 12-well tissue culture plates overnight. Cells were washed and stimulated with 100 ng/ml TA1 either alone or together with TLR ligands for 5 h before the assessment of IL-8 production in the supernatants.
(§2) The levels of TNF-alpha, IL-10, IL-12 p70, IFN-alpha and IL-8 in culture supernatants were determined by Kit ELISAs. The detection limits (pg/ml) of the assays were <3 (human) and <32 (murine) for TNF-alpha, <12 (murine) and <5 (human) for IL-10, <16 (murine) and <3 (human) for IL-12 p70 and <25 (human) IL-8. For human IFN-alpha <3 ng/ml. For enumeration of cytokine-producing cells, an ELISPOT assay was used on purified CD4^+ T cells and DCs from lungs.

[2] = system: lymphocytes and neutrophils; assay: Myeloid and Th1 cell recovery in BMT mice with IA; assay type: in vivo
Text: The treatments were as follows; in BMT-mice, TA1, at different doses administered intraperitoneally, sthymosin alpha 1, 400 microgram/kg administered intraperitoneally or human recombinant G-CSF 250 microgram/kg administered intravenously, were given daily beginning the day of the BM infusion, in concomitance with the infection and continuing for an additional 3 days. Amphotericin B was given daily for 3 days in concomitance with the infection, at a dose of 4000 microgram/kg, administered intraperitoneally. This dose would cure IA in cyclophosphamide-treated mice. Cyclophosphamide, 150 mg/kg administered intraperitoneally, was given a day before the infection. In cyclophosphamide-treated mice, 400 microgram/kg TA1 was given intraperitoneally for 5 consecutive days beginning the day of the infection. Cell surface phenotype was assessed by reacting samples with FITC- or PE-conjugated rat anti-mouse antibodies. Unrelated hisotype matched antibodies were used as control. The levels of TNF-alpha, IL-10, IL-12 p70, IFN-alpha and IL-8 in culture supernatants were determined by Kit ELISAs. The detection limits (pg/ml) of the assays were <3 (human) and <32 (murine) for TNF-alpha, <12 (murine) and <5 (human) for IL-10, <16 (murine) and <3 (human) for IL-12 p70 and <25 (human) IL-8. For human IFN-alpha <3 ng/ml. For enumeration of cytokine-producing cells, an ELISPOT assay was used on purified CD4^+ T cells and DCs from lungs. Proliferation of lung CD4^+ T lymphocytes stimulated with 10 microgram/ml Con A or heat inactivated conidia in the presence of lung DCs, was assessed by labeling with CFSE 5(6)-carboxyfluorescein diacetate succinimidyl ester.

[3] = system: p38 and NF-kB; assay: Analysis of p38 and NF-kB activation on lung DCs; assay type: cell-based, murine; settings: peptide alone, 20 minutes
Protocol: P38 and NF-kB were activated on lung DCs by exposure for 20 minutes at 37° C. to Aspergillus conidia and/or 100 ng/ml TA1. Blots of cell lysates were incubated with rabbit polyclonal Abs recognizing either the unphosphorylated form of p38 MAPK, or the double-phosphorylated (Thr-180/Tyr-182) p38 MAPK, or Abs specific for the Rel A, 65 kDa DNA binding subunit of human NF-kB followed by horseradish peroxidase-conjugated goat anti-rabbit IgG, as per manufacturer's instructions. Blots were developed with an Enhanced Chemiluminescence detection kit. Bands were visualized after exposure of the blots to a Kodak RX film. To ensure similar protein loading in each lane, the phospho blots were stripped and the membranes were reprobed with Abs against p38 and NF-kB.

[4] = system: Aspergillus conidia; assay: Antifungal effector activity (conidiocidal activity) of macrophages and neutrophils; assay type: cell-based; settings: TA1 treated mice
Protocol: […] In addition, the conidiocidal activity was assessed by determining the number of colony forming units and the percentage of colony forming units inhibition (mean±SE), referred to as conidiocidal activity.

[5] = molecular target: T2, human TLR2 (Homo sapiens, UniProt O60603); assay: IL-8 production by TLR2-transfected HEK293 cells; assay type: cell-based
T2 construct: expressed in transfected cells; host or cells: HEK293
Protocol: as §1, §2

[6] = BMT mice, cytofluorimetric analysis

T2 sequence (O60603 21-784): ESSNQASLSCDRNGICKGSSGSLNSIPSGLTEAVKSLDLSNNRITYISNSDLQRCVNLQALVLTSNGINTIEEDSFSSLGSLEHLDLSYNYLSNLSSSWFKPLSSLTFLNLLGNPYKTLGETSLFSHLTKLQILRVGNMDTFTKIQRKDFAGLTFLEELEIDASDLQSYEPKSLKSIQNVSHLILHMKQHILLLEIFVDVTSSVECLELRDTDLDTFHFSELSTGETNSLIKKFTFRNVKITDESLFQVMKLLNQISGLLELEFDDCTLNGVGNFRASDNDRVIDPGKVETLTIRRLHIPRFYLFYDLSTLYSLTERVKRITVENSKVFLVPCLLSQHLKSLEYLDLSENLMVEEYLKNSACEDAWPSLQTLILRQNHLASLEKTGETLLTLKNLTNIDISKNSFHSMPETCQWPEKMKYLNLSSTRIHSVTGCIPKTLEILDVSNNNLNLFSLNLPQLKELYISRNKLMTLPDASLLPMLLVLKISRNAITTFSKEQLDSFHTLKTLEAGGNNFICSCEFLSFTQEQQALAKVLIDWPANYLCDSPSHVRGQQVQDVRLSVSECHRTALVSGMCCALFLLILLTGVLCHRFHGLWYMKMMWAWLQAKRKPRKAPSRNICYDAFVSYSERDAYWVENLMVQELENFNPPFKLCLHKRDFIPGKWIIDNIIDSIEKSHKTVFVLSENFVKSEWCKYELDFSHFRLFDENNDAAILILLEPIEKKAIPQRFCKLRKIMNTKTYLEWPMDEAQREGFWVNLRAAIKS

Ac-Ser-Asp-Ala-Ala-Val-Asp-Thr-Ser-Ser-Glu-Ile-Thr-Thr-Lys-Asp-Leu-Lys-Glu-Lys-Lys-Glu-Val-Glu-Glu-Ala-Glu-Asn-O (Ac-SDAAVDTSSEITTKDLKEKKEVEEAEN-OH) [TA1, naturally occurring thymic peptide]
production of IL-8 ([1]; TA1 alone, 100 ng/ml, 5 h): directly activate; also recorded: significantly increased
production of IL-8 ([1]; in response to the TLR9 ligand CpG): significantly increased
frequency of Th1 cells (producing IFN-gamma) ([2]; BMT mice treated with TA1): increased; also recorded: higher
frequency of Th2 cells (producing IL-4) ([2]; BMT mice treated with TA1): decreased; also recorded: lower
function of lung CD4+ T lymphocytes (antigen-specific proliferation and IFN-gamma production) ([2]; BMT mice treated with TA1): functionally active
number of lung CD4+ cells [2, 6]: increase; also recorded: significantly increased
number of lung CD8+ cells [2, 6]: increase; also recorded: significantly increased
number of lung neutrophils [2, 6]: significantly increased
total neutrophils ([2]; BMT mouse model, TA1 treatment after Aspergillus infection): increase
absolute number of circulating lymphocytes ([2]; after TA1 treatment): significantly increases
absolute number of circulating neutrophils ([2]; after TA1 treatment): significantly increases
p38 phosphorylation [3]: induced
conidiocidal activity of macrophages [4]: higher
conidiocidal activity of neutrophils [4]: higher
production of IL-8 ([5]; TA1 alone): did not stimulate
production of IL-8 ([5]; in response to zymosan): potentiated; also recorded: slightly increased
